Experimental data from patent publication US8278315B2, “Radiotherapy method using x-rays” (priority 2002, dated 2012).

Columns and labels:
[1] = mouse studies, compared with DOX; cited from earlier work
[2] = tested on: DOX-resistant cells; details: cited from earlier work
[3] = DOX-treated patients; cited from earlier work
[4] = loss of UV absorbance at 260 nm after X-rays from a silver target; assay type: physicochemical; details: 20 μg/ml, per 100 Rads
Description: The phenanthroline groups on Dichlorotris(1,10-phenanthroline) ruthenium (II) hydrate absorb in the UV region with a peak absorbance at or near 260 nm. Loss or damage to these groups can be estimated by determining the UV absorbance before and after treatment with X-rays generated by a silver target which is optimum for Ru. Over several experiments replicating treatments with 100 Rad or using increasing amounts of X-rays between 50 Rads and 1000 Rads a loss of UV absorbance at 260 nm of 0.5% to 1% per 100 Rads has been determined.

[5] = tested on: neuroblastoma lines; experiment: nuclear chemotherapy: ^77BrdC on neuroblastoma lines; assay type: cell-based
Method: An investigation of a method called “nuclear chemotherapy” was done many years previously at Sloan-Kettering Research Institute in New York, by Dr. Chia-Gee Wang and Dr. Lawrence Helson. The research was done using ^77BrdC, where ^77Br (half-life at 57 hours) would undergo a K-capture and deliver 10^6 or more Gy at a small distance. The […] of BrdC to BrdU can be blocked by the non-toxic H4U and therefore excluding BrdC from being incorporated into the DNA pool. Certain transformed cells, on the other hand, would make use of a more primitive kinase to bypass the H4U blockage, and incorporate BrdC to form BrdU. The ^77Br was made by adding an a particle to ^75As in a facility in the U.K. ^77Br was obtained in liquid solution, and ^77BrdC was made. […] The Auger electrons from the ^77BrdU delivered such a high dose of the DNA duplex that no cellular repair was possible.

[6] = tested on: B-DNA; details: cited from earlier work

Compound: C[C@@H]1O[C@@H](O[C@H]2C[C@](O)(C(=O)CO)Cc3c(O)c4c(c(O)c32)C(=O)c2ccccc2C4=O)[C@H](I)[C@H](O)[C@H]1O [ANN, annamycin]
- cardiotoxicity [1]: less cardiotoxic
- cross resistance [2]: lack of cross resistance

Compound: COc1cccc2c1C(=O)c1c(O)c3c(c(O)c1C2=O)C[C@@](O)(C(=O)CO)C[C@@H]3O[C@H]1C[C@H](N)[C@H](O)[C@H](C)O1 [DOX, doxorubicin]
- frequency of relapse [3]: ≤ 50%

Compound: O.[Cl][Ru][Cl].c1cnc2c(c1)ccc1cccnc12.c1cnc2c(c1)ccc1cccnc12.c1cnc2c(c1)ccc1cccnc12 [Dichlorotris(1,10-phenanthroline) ruthenium (II) hydrate]
- phenanthroline groups damaged [4]: ~10^14 per ml

Compound: Nc1nc(=O)n(C2CC(O)C(CO)O2)cc1[77Br] (stereo not drawn) [^77BrdC]
- effect on sensitive tumor lines ([5]; sensitive lines, no immediate cell death): stopped mitosis
- sensitivity of neuroblastoma lines ([5]; ten neuroblastoma lines tested, H4U blockage): two of the ten lines were sensitive

Compound: CS(C)=O.CS(C)=O.CS(C)=O.CS(C)=O.[Cl][Ru][Cl] [cis-form of [Cl2(Me2SO)4Ru], [Cl2(Me2SO)4Ru]]
- effect on conformation of B-DNA [6]: does not significantly affect the conformation of B-DNA
- effect on thermal stability of B-DNA [6]: increases its thermal stability

Compound: [Cl2(Me2SO)4Ru] [trans-form]
- rate of DNA binding ([6]; compared with the cis-form): binds more rapidly
